According to paper PMC11482831 (bioRxiv, 2024):
pEC50: −log10 of the molar value. Bridge positions count the residues as written; N and C are the ends. Ends that are not written are not given here.

Key:
[1] = cited from earlier work
[2] = molecular target: T1, CTR:R3 (AMY3R) (Homo sapiens, UniProt O60896+P30988); conditions: 50 μM SUMO-miniGs, agonist titration
T1 sequence (P30988 25-474): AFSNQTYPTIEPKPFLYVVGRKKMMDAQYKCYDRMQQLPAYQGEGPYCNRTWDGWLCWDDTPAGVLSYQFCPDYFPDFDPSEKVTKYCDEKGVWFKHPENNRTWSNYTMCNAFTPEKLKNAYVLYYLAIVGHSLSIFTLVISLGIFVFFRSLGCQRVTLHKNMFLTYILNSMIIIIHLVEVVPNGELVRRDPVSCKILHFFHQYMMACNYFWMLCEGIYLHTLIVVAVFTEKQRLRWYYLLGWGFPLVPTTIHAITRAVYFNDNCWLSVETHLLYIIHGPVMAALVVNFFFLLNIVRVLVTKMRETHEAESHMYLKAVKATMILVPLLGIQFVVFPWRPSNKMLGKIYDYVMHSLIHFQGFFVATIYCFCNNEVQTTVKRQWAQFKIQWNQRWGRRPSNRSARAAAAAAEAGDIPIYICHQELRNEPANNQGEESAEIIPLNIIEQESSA
T1 sequence (O60896 25-148): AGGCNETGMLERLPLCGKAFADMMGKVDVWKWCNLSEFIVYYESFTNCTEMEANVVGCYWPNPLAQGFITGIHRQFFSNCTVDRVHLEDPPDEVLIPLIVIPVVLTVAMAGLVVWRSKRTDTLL

[3] = molecular target: CTR + RAMP1 (Homo sapiens, UniProt O60894+P30988); assay: cAMP signaling CAMYEL biosensor BRET assay in COS-7 cells, CTR + RAMP1; conditions: 30 min, 37°C, vs CTR alone
Chain of CTR + RAMP1 (O60894 27-148, one chain of several): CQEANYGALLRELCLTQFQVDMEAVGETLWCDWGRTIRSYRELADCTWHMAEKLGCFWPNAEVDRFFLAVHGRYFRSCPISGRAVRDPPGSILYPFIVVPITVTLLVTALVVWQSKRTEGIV

[4] = molecular target: T2, CTR + RAMP3 (Homo sapiens, UniProt O60896+P30988); assay: cAMP signaling CAMYEL biosensor BRET assay in COS-7 cells, CTR + RAMP3; conditions: 30 min, 37°C
T2 sequence (P30988 25-474): T1 sequence (P30988 25-474)
T2 sequence (O60896 24-148): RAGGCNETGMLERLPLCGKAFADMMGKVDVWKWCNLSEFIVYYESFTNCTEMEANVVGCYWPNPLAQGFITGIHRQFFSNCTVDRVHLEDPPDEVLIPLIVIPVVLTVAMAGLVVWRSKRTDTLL

[5] = system: AMY1R (CTR:RAMP1); assay: Native PAGE mobility shift assay, single-point, AMY1R; format: biochemical, human; conditions: 10 μM agonist, no mGs, detergent-solubilized (LMNG/CHS), in-gel mCitrine fluorescence, qualitative, three replicates
[6] = system: AMY2R (HiBiT-CTR:mCitrine-RAMP2); assay: CTR:RAMP cell surface proximity BRET assay, AMY2R; format: cell-based, human; conditions: 300 nM agonist, HEK293 cells, room temperature, 30 min, pH 7.4
[7] = molecular target: T3, AMY3R (HiBiT-CTR:mCitrine-RAMP3) (Homo sapiens, UniProt O60896+P30988); assay: CTR:RAMP cell surface proximity BRET assay, AMY3R; format: cell-based; conditions: 300 nM agonist, HEK293 cells, room temperature, 30 min, pH 7.4
T3 sequence (P30988 25-474): T1 sequence (P30988 25-474)

[8] = molecular target: AMY1R (HiBiT-CTR:mCitrine-RAMP1) (Homo sapiens, UniProt O60894+P30988); assay: CTR:RAMP cell surface proximity BRET assay, AMY1R; format: cell-based; conditions: 300 nM agonist, HEK293 cells, room temperature, 30 min, pH 7.4
Chain of AMY1R (HiBiT-CTR:mCitrine-RAMP1) (O60894 24-148, one chain of several): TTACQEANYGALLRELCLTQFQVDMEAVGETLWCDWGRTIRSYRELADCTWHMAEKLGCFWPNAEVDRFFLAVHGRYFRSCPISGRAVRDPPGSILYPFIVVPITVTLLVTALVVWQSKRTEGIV

[9] = molecular target: CTR:R1 (AMY1R) (Homo sapiens, UniProt O60894+P30988); assay: Native PAGE agonist titration with excess SUMO-miniGs, AMY1R; conditions: 50 μM SUMO-miniGs
Chain of CTR:R1 (AMY1R) (O60894 24-148, one chain of several): as above

[10] = molecular target: CTR:R2 (AMY2R) (Homo sapiens, UniProt O60895+P30988); conditions: 50 μM SUMO-miniGs, agonist titration
Chain of CTR:R2 (AMY2R) (O60895 55-175, one chain of several): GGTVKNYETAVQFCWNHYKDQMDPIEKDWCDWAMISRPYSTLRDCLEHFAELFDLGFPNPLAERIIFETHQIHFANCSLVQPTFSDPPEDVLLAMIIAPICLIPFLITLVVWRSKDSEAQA

[11] = system: AMY2R (CTR:RAMP2); assay: Native PAGE mobility shift assay, single-point, AMY2R; format: biochemical, human; conditions: 10 μM agonist, no mGs, detergent-solubilized (LMNG/CHS), in-gel mCitrine fluorescence, qualitative, three replicates
[12] = molecular target: AMY1R on cells (HiBiT-CTR.25–474 : mCitrine-RAMP1.24–148) (human) (UniProt O60894); assay: FRET or BRET

Chain of human αCGRP (P06881 83-119): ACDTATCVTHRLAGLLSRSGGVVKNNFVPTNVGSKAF

Row | Substance | Subunit dissociation (increase in free RAMP3) [2] | Change of subunit distribution (free RAMP1 / AMY1R heterodimer) [5] | Change in CTR:RAMP proximity BRET signal, real-time [6] | Change in CTR:RAMP proximity BRET signal, real-time [7] | Change in CTR:RAMP proximity BRET signal, real-time [8] | Effect on CTR-RAMP1 association/dissociation, free RAMP1 [9] | Change of subunit distribution (AMY2R heterodimer / oligomers) [11] | further results
1 | pramlintide (KCNTATCATQRLANFLVHSSNNFGPILPPTNVGSNTY-NH2; disulfide 2-7; UniProt P10997 34-70, looked up, variant A25P S28P S29P) | – | – | – | – | – | – | – | Insulin adjunct therapy, glycemic control ([1]; ref [8]): improved glycemic control
2 | human calcitonin [hCT] | promoted AMY3R dissociation | did not appreciably change the free RAMP1 | a brief initial decrease followed by a gradual increase | decreased the BRET signal | similarly decreased it | little or no effect on subunit association/dissociation | induced formation of a higher order oligomeric species of unknown molecular composition | Quaternary complex formation (in words) [2]: little if any quaternary complex; Potency change on RAMP1 co-expression, cAMP [3]: did not change hCT potency; Steepness of cAMP concentration-response curve [4]: steeper than the other curves; Potency change on RAMP3 co-expression, cAMP ([4]; vs CTR alone): decreased hCT potency; Quaternary complex formation (in words) [10]: little if any quaternary complex
3 | cagrilintide (KCNTATCATQRLAEFLRHSSNNFGPILPPTNVGSNTP; chains of the INN, looked up) | – | – | – | – | – | – | – | Weight loss in clinical trials ([1]; ref [9]-[12]): promote substantial weight loss
4 | human αCGRP (from UniProt P06881 83-119) (peptide) | – | – | – | – | – | – | – | pEC50 [12]: 7.52
5 | salmon calcitonin [sCT] | promoted AMY3R dissociation | did not appreciably change the free RAMP1 | a brief initial decrease followed by a gradual increase | decreased the BRET signal | similarly decreased it | little or no effect on subunit association/dissociation | induced formation of a higher order oligomeric species of unknown molecular composition | –
6 | rat amylin [rAmylin] | – | reduced free RAMP1 and increased the amount of the AMY1R heterodimer | – | no effect | – | decreased free RAMP1 with increasing agonist | appeared to increase the amount of AMY2R heterodimer | –
